The source made the active and inactive calls.
How the values were obtained:
Bcl-2-like protein 1 = Bcl-2-like protein 1 (Homo sapiens, UniProt Q07817); experiment: BCL-XL inhibitors, dose response, selectivity assay for MCL1 inhibitor project, biochemical, fluorescence polarization, 1536-well (AID 2218)
[1] = biological target: T1, Zinc finger protein mex-5 (Caenorhabditis elegans, UniProt Q9XUB2); experiment: MEX-5/TCR-2 RNA interaction inhibitors, dose response, biochemical, C. elegans, fluorescence polarization (AID 1960)
T1 sequence (Q9XUB2 whole entry): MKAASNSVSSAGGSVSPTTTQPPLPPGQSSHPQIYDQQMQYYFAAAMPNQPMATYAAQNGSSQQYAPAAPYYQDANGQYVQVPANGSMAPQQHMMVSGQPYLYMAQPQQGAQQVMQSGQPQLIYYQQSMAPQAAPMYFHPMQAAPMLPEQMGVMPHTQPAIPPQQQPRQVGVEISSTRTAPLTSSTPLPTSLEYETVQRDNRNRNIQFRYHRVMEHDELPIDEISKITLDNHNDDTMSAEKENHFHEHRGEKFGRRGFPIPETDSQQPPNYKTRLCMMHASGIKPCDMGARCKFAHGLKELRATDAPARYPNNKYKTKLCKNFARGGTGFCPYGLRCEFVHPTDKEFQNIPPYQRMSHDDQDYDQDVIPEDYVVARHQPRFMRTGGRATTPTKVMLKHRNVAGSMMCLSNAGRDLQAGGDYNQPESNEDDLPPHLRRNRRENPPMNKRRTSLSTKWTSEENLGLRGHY

Genome polyprotein = Genome polyprotein (dengue virus type 2, UniProt P29990); experiment: Dengue-2 NS5 methyltransferase inhibitors, primary screen, biochemical, confirmation dose response (AID 588689); type: functional
[2] = biological target: T2, Induced myeloid leukemia cell differentiation protein Mcl-1 (Homo sapiens, UniProt Q07820); experiment: MCL1-BIM BH3 interaction inhibitors, dose response, biochemical, fluorescence polarization, BIM-BH3 peptide, 1536-well (AID 2217)
[3] = biological target: T3, RNA-binding protein pos-1 (Caenorhabditis elegans, UniProt G5EF15); experiment: inhibitors of POS-1/mex-3 RNA binding, dose response, biochemical, fluorescence polarization (AID 1964);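 further: purified POS-1 fused to maltose binding protein made in E. coli; potency of compounds blocking POS-1 binding to fluorescent RNA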
T3 sequence (G5EF15 whole entry): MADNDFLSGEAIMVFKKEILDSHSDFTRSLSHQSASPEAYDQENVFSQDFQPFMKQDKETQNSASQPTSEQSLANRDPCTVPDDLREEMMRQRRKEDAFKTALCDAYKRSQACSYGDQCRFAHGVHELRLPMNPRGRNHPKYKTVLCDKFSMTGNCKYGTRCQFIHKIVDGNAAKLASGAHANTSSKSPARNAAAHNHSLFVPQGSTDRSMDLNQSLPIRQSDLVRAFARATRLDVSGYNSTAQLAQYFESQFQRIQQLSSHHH

[4] = inhibitors of intracellular T. cruzi replication, confirmation, NIH3T3 host cells, beta-gal luminescence (AID 2044); type: functional, cell-based;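 further: intracellular parasites grown in NIH/3T3 mouse fibroblasts as host cells; luminescent beta-galactosidase reporter signal from transgenic T. cruzi replicating inside host cells; inhibitors lower the luminescence signal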
[5] = cytotoxicity toward NIH3T3 fibroblasts, dose response, counter-screen, cell-based, ATP luminescence, mouse fibroblasts (AID 2010); type: functional;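 further: cells exposed to compound for about 90 hours before reading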
[6] = biological target: T4, Microphthalmia-associated transcription factor (Homo sapiens, UniProt O75030); experiment: TRPM1 promoter luciferase signal decrease, dose response, MITF inhibitor project, cell-based, SK-MEL-5, cherry-picked, set 3 (AID 493073); type: functional
T4 sequence (O75030 whole entry): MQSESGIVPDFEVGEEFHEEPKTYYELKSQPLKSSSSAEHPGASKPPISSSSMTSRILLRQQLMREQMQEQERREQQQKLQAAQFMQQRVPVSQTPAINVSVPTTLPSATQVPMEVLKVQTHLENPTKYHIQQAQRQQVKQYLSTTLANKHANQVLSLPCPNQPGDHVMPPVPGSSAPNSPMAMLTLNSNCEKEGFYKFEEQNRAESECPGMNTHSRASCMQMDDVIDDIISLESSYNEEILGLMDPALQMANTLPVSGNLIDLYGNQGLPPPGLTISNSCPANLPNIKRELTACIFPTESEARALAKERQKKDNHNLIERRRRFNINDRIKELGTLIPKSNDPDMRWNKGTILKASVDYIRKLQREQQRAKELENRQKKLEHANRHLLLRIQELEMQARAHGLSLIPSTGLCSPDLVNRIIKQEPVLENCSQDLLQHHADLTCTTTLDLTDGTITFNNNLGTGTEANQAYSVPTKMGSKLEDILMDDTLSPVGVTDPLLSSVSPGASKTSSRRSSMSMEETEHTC

[7] = biological target: T5, Neuropeptide Y receptor type 1 (Homo sapiens, UniProt P25929); type: functional;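 further: HEK293 cells with a CNG channel challenged with NPY then isoproterenol; potency as antagonist that reverses NPY suppression of cAMP signal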
T5 sequence (P25929 whole entry): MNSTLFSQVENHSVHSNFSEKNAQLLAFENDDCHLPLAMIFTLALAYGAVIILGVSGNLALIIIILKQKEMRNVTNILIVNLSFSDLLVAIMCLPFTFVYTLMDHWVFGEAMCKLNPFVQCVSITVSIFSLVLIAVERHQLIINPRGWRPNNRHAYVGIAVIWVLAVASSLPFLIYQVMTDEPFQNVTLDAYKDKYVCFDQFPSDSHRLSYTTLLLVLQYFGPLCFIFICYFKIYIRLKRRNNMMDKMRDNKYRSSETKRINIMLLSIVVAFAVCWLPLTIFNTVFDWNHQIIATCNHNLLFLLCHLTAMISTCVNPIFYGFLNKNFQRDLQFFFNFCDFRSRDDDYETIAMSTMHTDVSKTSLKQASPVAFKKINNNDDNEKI

[8] = biological target: T6, Neuropeptide Y receptor type 2 (Homo sapiens, UniProt P49146); type: functional, cell-based;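 further: HEK293 cells expressing the receptor and a CNG channel; stimulus was NPY near EC95 followed by isoproterenol to raise cAMP; antagonist potency measured as restoring cAMP signal that NPY suppresses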
T6 sequence (P49146 whole entry): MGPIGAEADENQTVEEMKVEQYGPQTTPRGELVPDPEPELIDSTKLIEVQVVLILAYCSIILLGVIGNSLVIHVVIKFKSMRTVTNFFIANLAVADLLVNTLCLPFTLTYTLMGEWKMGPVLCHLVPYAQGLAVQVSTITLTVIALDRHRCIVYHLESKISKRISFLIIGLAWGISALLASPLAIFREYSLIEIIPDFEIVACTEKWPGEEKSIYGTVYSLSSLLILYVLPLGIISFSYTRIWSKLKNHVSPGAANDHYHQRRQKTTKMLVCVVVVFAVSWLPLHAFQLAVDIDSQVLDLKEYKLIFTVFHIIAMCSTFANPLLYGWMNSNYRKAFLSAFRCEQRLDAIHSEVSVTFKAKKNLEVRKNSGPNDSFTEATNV

Cytochrome P450 1A2 = biological target: T7, Cytochrome P450 1A2 (Homo sapiens, UniProt P05177);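 further: PubChem cytochrome P450 panel assay, CYP1A2 panel member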
T7 sequence (P05177 whole entry): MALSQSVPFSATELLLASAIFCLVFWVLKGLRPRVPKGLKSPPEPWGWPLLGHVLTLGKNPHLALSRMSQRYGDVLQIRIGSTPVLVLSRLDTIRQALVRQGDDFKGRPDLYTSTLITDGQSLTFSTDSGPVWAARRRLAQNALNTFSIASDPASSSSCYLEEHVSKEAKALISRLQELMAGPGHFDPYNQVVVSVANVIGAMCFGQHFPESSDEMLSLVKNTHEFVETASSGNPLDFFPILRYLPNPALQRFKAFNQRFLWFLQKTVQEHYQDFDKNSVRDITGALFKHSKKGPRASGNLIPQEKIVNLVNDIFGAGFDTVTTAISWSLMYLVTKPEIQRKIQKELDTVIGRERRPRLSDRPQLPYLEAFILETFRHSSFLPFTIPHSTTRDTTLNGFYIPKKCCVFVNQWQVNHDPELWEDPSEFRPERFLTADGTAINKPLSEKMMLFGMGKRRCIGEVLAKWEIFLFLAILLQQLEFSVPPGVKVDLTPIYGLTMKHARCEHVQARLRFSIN

[9] = biological target: T2, Induced myeloid leukemia cell differentiation protein Mcl-1; type: functional
Cytochrome P450 2C19 = Cytochrome P450 2C19 (Homo sapiens, UniProt P33261); experiment: Cytochrome panel assay with activity outcomes. Panel member name: p450-cyp2c19 Compounds with AC50 equal or less than 10 uM are considered active; type: functional; details: read-out: AC50
Cytochrome P450 3A4 = Cytochrome P450 3A4 (Homo sapiens, UniProt P08684);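 further: CYP3A4 tested as one member of a cytochrome P450 panel screen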
Cytochrome P450 2D6 = Cytochrome P450 2D6 (Homo sapiens, UniProt P10635);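 further: CYP2D6 member of a cytochrome P450 panel assay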
Cytochrome P450 2C9 = Cytochrome P450 2C9 (Homo sapiens, UniProt P11712)
[10] = biological target: Lytic switch protein BZLF1 (Epstein-Barr virus (strain B95-8) (HHV-4) (Human herpesvirus 4), UniProt P03206); experiment: EBV ZTA inhibitors, dose response, counter-screen for EBNA-1 inhibitor project, biochemical, fluorescence polarization, Epstein-Barr virus, 1536-well (AID 2377); design: species or system human gammaherpesvirus 4;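 further: fluorescence polarization of Cy5-labelled ZRE DNA probe bound by purified Zta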
[11] = biological target: Epstein-Barr nuclear antigen 1 (Epstein-Barr virus (strain B95-8) (HHV-4) (Human herpesvirus 4), UniProt P03211); experiment: EBNA-1 inhibitors, dose response, biochemical, fluorescence polarization, 1536-well (AID 2381); design: species or system human gammaherpesvirus 4;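 further: fluorescence polarization of a Cy5 DNA probe bound by EBNA-1 protein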
[12] = C. albicans growth with fluconazole, confirmation, fluorescence, retest (AID 2467); type: functional, cell-based
[13] = cytotoxicity in HEK-293T cells, dose response, cytotoxicity control for TCR NF-kB inhibitor project, luminescence, T-cell screen hits (AID 489026); type: functional, cell-based;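 further: cells exposed to compound about 14 hours before the viability readout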
[14] = NIH-3T3 fibroblast cytotoxicity, dose response, cytotoxicity control, cell-based, fluorescence, Alamar Blue, secondary assay (AID 2327); type: functional;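 further: NIH-3T3 mouse fibroblasts cultured with fluconazole at 8 µg/mL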
[15] = cytotoxicity toward DRD oncogenic fibroblasts, dose response, cell-based, non-viral oncogenic, luminescence (AID 1934); type: functional; details: Homo sapiens
BJ [16] = experiment: cells; type: functional, cell-based; details: Homo sapiens
BJ [17] = experiment: cytotoxicity toward BJ-TERT-LT-ST fibroblasts, dose response, cell-based, RAS-independent, luminescence (AID 1935); type: functional; details: Homo sapiens;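 further: BJ fibroblasts immortalized with TERT plus LT and ST oncogenes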
BJ [18] = experiment: cytotoxicity toward BJ-TERT fibroblasts, dose response, cell-based, RAS-independent, luminescence (AID 1933); type: functional; details: Homo sapiens

T2 sequence (Q07820 whole entry, the tested form may be a part): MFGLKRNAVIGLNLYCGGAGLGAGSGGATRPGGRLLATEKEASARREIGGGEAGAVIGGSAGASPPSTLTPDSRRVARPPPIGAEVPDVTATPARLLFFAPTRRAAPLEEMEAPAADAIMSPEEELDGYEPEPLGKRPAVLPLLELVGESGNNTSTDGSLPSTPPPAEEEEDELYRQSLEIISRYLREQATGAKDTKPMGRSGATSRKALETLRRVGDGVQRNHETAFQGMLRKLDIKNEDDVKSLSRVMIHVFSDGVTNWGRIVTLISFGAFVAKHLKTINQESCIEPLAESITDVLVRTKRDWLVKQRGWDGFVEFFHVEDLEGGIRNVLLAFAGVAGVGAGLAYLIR
Chain of Bcl-2-like protein 1 (Q07817 whole entry): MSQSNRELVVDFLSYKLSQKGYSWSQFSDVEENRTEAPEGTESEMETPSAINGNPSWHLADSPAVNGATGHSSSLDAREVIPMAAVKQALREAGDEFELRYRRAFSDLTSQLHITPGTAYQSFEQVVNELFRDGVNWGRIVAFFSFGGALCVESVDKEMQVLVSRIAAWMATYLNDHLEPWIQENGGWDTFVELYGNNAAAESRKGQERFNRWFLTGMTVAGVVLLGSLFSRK
Chain of Cytochrome P450 3A4 (P08684 whole entry): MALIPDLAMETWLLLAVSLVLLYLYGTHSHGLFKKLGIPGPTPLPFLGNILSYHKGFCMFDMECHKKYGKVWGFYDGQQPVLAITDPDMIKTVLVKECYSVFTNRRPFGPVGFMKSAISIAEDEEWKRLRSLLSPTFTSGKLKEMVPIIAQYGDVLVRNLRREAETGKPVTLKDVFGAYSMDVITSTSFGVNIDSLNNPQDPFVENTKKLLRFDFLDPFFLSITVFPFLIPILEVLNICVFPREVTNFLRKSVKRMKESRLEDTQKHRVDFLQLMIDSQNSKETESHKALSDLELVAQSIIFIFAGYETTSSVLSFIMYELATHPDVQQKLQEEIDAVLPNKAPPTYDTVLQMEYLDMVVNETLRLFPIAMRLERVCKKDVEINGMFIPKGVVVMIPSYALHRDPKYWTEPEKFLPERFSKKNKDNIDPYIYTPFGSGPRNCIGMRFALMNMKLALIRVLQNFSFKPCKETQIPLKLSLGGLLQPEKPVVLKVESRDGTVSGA
Chain of Epstein-Barr nuclear antigen 1 (P03211 whole entry): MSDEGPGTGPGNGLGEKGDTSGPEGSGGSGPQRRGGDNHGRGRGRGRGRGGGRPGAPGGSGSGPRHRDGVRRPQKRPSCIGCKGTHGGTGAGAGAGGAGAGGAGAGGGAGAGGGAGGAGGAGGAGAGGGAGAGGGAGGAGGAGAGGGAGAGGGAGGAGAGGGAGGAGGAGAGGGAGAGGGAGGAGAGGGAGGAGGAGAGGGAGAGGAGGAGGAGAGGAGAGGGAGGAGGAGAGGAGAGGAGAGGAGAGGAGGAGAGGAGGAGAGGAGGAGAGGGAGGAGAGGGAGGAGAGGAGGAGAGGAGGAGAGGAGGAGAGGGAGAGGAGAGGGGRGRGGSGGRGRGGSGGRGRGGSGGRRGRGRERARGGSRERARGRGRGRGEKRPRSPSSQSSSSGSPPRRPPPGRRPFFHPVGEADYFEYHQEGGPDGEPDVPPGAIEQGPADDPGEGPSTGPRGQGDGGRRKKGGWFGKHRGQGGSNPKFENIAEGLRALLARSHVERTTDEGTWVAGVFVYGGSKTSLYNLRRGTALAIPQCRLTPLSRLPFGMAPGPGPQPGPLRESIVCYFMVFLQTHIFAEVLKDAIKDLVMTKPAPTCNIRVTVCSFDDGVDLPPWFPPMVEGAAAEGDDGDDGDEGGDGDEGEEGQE
Chain of Genome polyprotein (P29990 2492-3391 limits assumed): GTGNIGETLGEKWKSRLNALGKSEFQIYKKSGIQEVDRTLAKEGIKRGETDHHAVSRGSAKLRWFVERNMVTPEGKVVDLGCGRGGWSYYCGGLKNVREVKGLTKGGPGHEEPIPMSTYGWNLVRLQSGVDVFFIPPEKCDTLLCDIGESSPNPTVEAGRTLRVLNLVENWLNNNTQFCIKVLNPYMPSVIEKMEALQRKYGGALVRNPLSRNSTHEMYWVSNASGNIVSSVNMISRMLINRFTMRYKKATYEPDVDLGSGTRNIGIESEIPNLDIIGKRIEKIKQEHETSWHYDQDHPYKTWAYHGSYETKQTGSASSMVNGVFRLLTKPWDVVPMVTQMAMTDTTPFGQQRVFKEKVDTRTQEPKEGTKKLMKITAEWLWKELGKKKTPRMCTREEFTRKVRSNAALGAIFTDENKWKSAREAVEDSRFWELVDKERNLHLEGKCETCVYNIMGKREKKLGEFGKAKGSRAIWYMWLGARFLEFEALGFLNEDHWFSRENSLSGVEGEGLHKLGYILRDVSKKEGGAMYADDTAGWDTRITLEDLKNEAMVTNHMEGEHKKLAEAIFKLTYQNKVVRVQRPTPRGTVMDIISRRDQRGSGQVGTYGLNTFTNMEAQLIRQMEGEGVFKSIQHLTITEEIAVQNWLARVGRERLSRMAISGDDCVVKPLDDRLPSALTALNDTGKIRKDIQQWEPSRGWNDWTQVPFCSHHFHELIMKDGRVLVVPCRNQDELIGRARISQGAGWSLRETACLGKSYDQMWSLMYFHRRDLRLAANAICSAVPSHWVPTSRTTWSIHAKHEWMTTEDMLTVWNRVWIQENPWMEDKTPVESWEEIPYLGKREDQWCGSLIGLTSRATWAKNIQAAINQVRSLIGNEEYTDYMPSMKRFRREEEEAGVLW
Chain of Cytochrome P450 2C19 (P33261 whole entry): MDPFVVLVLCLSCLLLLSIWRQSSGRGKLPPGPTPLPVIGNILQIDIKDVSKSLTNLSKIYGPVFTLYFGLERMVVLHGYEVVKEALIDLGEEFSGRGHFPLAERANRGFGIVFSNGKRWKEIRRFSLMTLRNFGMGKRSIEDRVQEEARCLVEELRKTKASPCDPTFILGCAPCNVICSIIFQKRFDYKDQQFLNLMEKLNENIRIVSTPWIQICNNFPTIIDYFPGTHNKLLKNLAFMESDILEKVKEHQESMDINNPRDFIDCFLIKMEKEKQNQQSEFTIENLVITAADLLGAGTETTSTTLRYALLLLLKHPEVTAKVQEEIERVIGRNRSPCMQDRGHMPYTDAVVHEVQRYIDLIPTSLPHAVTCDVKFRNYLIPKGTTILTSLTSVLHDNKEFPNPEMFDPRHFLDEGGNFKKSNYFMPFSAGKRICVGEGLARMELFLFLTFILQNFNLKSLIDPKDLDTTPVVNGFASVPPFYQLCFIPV
Chain of Lytic switch protein BZLF1 (P03206 whole entry): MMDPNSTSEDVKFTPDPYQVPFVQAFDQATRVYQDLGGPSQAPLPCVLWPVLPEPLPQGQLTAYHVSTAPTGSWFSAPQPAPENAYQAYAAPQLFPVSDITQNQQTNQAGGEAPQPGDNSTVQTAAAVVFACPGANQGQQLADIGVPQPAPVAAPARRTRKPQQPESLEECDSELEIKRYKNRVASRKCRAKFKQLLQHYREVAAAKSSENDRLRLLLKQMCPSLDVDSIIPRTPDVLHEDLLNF
Chain of Cytochrome P450 2D6 (P10635 whole entry): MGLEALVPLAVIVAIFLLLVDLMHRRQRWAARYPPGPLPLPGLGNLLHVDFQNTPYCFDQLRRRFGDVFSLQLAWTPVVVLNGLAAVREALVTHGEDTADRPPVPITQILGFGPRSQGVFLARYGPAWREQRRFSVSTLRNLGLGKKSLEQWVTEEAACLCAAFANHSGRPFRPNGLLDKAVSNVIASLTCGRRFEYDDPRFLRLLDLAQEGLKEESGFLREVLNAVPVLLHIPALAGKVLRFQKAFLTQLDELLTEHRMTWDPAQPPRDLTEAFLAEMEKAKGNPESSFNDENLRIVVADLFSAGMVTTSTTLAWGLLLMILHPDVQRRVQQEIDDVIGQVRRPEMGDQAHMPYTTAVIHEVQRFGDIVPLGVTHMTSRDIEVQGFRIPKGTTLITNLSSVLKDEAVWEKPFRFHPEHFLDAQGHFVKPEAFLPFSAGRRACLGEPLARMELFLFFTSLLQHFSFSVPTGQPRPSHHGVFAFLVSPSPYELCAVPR
Chain of Cytochrome P450 2C9 (P11712 whole entry): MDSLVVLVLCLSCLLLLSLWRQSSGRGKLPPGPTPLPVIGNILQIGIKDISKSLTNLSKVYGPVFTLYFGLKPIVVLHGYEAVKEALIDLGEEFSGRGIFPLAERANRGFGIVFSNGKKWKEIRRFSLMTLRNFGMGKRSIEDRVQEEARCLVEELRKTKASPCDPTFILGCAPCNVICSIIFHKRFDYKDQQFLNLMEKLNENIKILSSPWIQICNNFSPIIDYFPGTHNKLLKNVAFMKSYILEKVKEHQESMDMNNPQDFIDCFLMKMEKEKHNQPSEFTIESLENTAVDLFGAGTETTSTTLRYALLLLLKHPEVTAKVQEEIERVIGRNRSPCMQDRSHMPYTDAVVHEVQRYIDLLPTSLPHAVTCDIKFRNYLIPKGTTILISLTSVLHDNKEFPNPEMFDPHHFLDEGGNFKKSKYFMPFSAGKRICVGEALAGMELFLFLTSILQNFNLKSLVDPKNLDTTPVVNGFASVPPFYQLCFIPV

Question: With `Cc1nc2ccccc2c(=O)n1/N=C/c1ccc(O)c(O)c1O` as the molecule, how does the IC50 (Bcl-2-like protein 1) read?
Answer: Its IC50 is > 109 µM (not active).

Question: What about the EC50 [1] of the same molecule?
Answer: The EC50 was 193 nM (active).

Question: What about the IC50 (Genome polyprotein) of the same molecule?
Answer: The IC50 was > 100 µM (active).

Question: And the IC50 [2]?
Answer: Its IC50 is 2.07 µM (active).

Question: What about the EC50 [3] of the same molecule?
Answer: Its EC50 is 12.9 µM (active).

Question: What does the source list for `C/C(=N/NC(=O)C(O)(c1ccccc1)c1ccccc1)c1ccc([N+](=O)[O-])o1`?
Answer: EC50 [4]: < 100 nM (active); EC50 [5]: > 60 µM (not active); AC50 [6]: 9.84 µM (active); EC50 (cells): 222 nM (active)

Question: Which IC50 [7] does the source give for `CCSc1nc2ccc(OC)cc2cc1C#N` here?
Answer: Its IC50 is 11.1 µM (not active).

Question: What about the IC50 [8] of the same molecule?
Answer: Its IC50 is 17.8 µM (not active).

Question: What does the source list for `O=C(N/N=C/c1ccncc1)c1cc([N+](=O)[O-])cc([N+](=O)[O-])c1O`?
Answer: AC50 (Cytochrome P450 1A2): 5.01 µM (inconclusive); IC50 [9]: 3.25 µM (active); AC50 (Cytochrome P450 2C19): 2.51 µM (inconclusive); IC50 (Bcl-2-like protein 1): > 109 µM (not active); AC50 (Cytochrome P450 3A4): 1 µM (inconclusive); AC50 (Cytochrome P450 2D6): 14.1 µM (inconclusive); IC50 [2]: > 36.3 µM (not active)

Question: With `Clc1ccccc1CSc1nnc(/C=C/c2ccccc2)o1` as the molecule, how does the AC50 (Cytochrome P450 2C9) read?
Answer: The AC50 was 7.94 µM (inconclusive).

Question: And the IC50 [7]?
Answer: The IC50 was 6.96 µM (active).

Question: What about the IC50 [8] of the same molecule?
Answer: The IC50 was 8.09 µM (active).

Question: For `COc1ccc2oc(C(=O)OCC(=O)Nc3ccc(NC(C)=O)cc3)c(C)c2c1`, which IC50 [10] is on record?
Answer: The IC50 was > 111 µM (not active).

Question: What about the IC50 [11] of the same molecule?
Answer: Its IC50 is 4.71 µM (active).

Question: What does the source list for `Cc1ccc2c(c1)sc(-c1ccc(N(C)C)cc1)[n+]2C`?
Answer: EC50 [4]: < 100 nM (active); EC50 [5]: > 60 µM (not active); EC50 [12]: 39 nM (active); IC50 [13]: > 80 µM (inactive); EC50 [14]: > 160 µM (inactive); EC50 (cells): < 4 nM (active); EC50 [15]: 14.5 µM (active); EC50 (BJ [16]): 609 nM (active); EC50 (BJ [17]): 20.9 µM (inconclusive); EC50 (BJ [18]): 3.83 µM (active)

— ChEMBL document CHEMBL1201862, “PubChem BioAssay data set” (2004)
